Experimental data taken from US20230331676A1, “NAPHTHYLUREA COMPOUND, METHODS OF PREPARATION AND USE THEREOF” (Henan Radiomedical Science and Technology Co., Ltd., priority 2021, published 2023).

Key:
Assay type in all cases: cell-based
[1] = system: tumor cells such as breast cancer (MDA-MB-468) and liver cancer (HepG2); test: MTT assay, inhibition of tumor cell proliferation; details: 48 h, compared with positive control WP1066, IC50 values only in FIG. 1
Procedure: Tumor cells in logarithmic growth phase were collected; the cell suspension was diluted to a density of 5×10^4 cells/mL; 100 uL of the cell suspension was transferred to each hole of a 96-well plate; DMSO was used as a solvent for negative control; (2E)-3-(6-bromo-2-pyridyl)-2-cyano-N-[(1S)-1-phenylethyl]-2-acrylamide (WP1066CAS: 857064-38-1, with a formula
was used as a positive control; the naphthylurea compounds IY210216D-1, ID210203C-1 and IY210316B-1 were diluted with DMSO and added into the 96-well plate to a final concentration of 0.1, 0.3, 1, 3, 10, 30, 100 and 300 μmol/L; the 96-well plate was incubated for 48 h; 10 μL of MTT solvent (5 mg/mL) was added into each well; the 96-well plate was incubated at 37° C. for 4 h; a culture supernatant was discarded; 150 μL of DMSO was added into each well; the 96-well plate was shaken for 10 min on a plate shaker; an optical density (OD) of the resulting product was measured at a wavelength of 490 nm by an ELISA reader. Test results were recorded. A cell growth curve was drawn with the dosage of each compound as abscissa and the absorbance value as ordinate. The statistical results of the half inhibition rate (IC50 value) of tumor cells by the compounds IY210216D-1, ID210203C-1 and IY210316B-1 were shown in FIG. 1.

MDA-MB-468 cells [2] = test: Apoptosis by Annexin V-FITC/PI flow cytometry, MDA-MB-468
Procedure: (§1) The MDA-MB-468 or HepG2 cells were harvested during log phase, digested, centrifuged and prepared into a single cell suspension; the number of the cells in the cell suspension was counted; the cells were seeded into a 12-well plate, with 2×10^5 cells per well; three wells were used as a parallel control design; 16 hours after seeding, the cells were treated with the compounds.
(§2) With DMSO as a solvent, the final concentrations of the compounds IY210216D-1 and ID210203C-1 in HepG2 cell suspension were 0, 2, 4 and 8 μM, respectively, and the final concentrations of the compound IY210316B-1 in MDA-MB-468 cell suspension were 0 and 0.12 μM, respectively. […]

[3] = system: JAK2/STAT3 signal axis in MDA-MB-468 or HepG2 cells; test: Western blot of JAK2/STAT3 signal axis protein expression; details: MDA-MB-468 (0, 0.5, 1 μM) or HepG2 (0-8 μM), 48 h, vs solvent control; dose-dependent
Procedure: MDA-Mb-468 or HepG2 cells in logarithmic growth phase were inoculated in a 6-well plate, with 8×10^5 cells per well. After cell adhesion, the compound ID210203C-1 was added until a final concentration thereof was 0, 0.5, 1 or 0, 0.5, 1, 2, 4 and 8 μM respectively. After about 48 hours, the cells were lysed with RIPA lysate and proteins were collected for Western blot analysis. The protein expressions were respectively detected through the anti-JAK2, p-JAK2, STAT3, p-STAT3, CyclinD1, p-AKT, p-ERK and β-actin antibodies.

HepG2 cells [4] = test: Cell cycle distribution by flow cytometry (PI), HepG2; details: hepatoma cells (HepG2), 2, 4, 8 μM, 48 h, vs DMSO
Procedure: (§3) MDA-MB-468 or HepG2 cells were harvested during log phase, digested, centrifuged and prepared into a single cell suspension; the number of the cells in the single cell suspension was counted; the cells were seeded into a 12-well plate, with 2×10^5 cells per well; three wells were used as a parallel control design; 16 hours after seeding, the cells were treated with the compounds. With DMSO as a solvent, the final concentrations of the compounds IY210216D-1 and ID210203C-1 in HepG2 cell suspension were 0, 2, 4 and 8 μM, respectively, and the final concentrations of the compounds IY210216D-1 and ID210203C-1 in MDA-MB-468 cell suspension were 0 and 2 μM, respectively. 48 hours later, the cells were digested with trypsin and resuspended; the number of the cells in the cell suspension was counted and diluted to 5×10^5 cells/mL; after the digestion was completed, the cell suspension was centrifuged; the supernatant was discarded; the pellet was washed twice with PBS (each time the mixture was centrifuged 2000 rpm for 5 min); the supernatant was discarded; a fixative comprising 980 μL of 70% cold ethanol and 20 μL of 5% BSA (a small amount of BSA reduces cellular stress and damage) was added to each microcentrifuge tube, so that the cells were fixed overnight at 4° C.; the fixative is discarded; the cells were washed three times in PBS to remove residual fixative (each time the mixture was centrifuged at 1000 rpm for 3 min); a DNA quantification kit is used to measure the content of DNA according to the following instruction (Suo Laibao, Beijing): each sample was incubated in 100 μL of RNase A at 37° C. for 30 min; 500 μL of PI (propidium iodide) was added to each sample; each sample was incubated at room temperature for 30 min in the dark; the cell cycle was analyzed by a flow cytometry and a ModFit software; and Graphpad prism 6.0 was used to estimate the percentage of a cell population in the different phases of the cell cycle.

MDA-MB-468 cells [5] = test: Cell cycle distribution by flow cytometry (PI), MDA-MB-468; details: breast cancer cells (MDA-MB-468), 2 μM, 48 h, vs DMSO
Procedure: as §3

HepG2 cells [6] = test: Apoptosis by Annexin V-FITC/PI flow cytometry, HepG2; details: HepG2, 0, 2, 4, 8 μM, 48 h, vs control group
Procedure: as §1, §2

HepG2 liver cancer cells = test: Q-PCR of mRNA level of cell cycle and metastasis related molecules; details: HepG2, 4 μM, 24 hours; for down-regulation of Cyclin B1 (CCNB1) mRNA level / down-regulation of Cyclin D1 (CCND1) mRNA level: relative to actin gene
Procedure: HepG2 liver cancer cells were seeded in a 6-well plate, with 1×10^6 cells per well, and treated with the compounds IY210216D-1 and ID210203C-1 (in 0 and 4 μM concentrations) for 24 h; total RNA was extracted from the HepG2 liver cancer cells by a single-step TRIzol method; the concentration and purity of the total RNA was measured; the total RNA was used as a template; and complementary DNA (cDNA) was synthesized from the RNA template according to the instruction of a reverse transcription kit (Promega); sqRT-PCR and qPCR were used to quantify the expression of the genes CCNB1, CDK1 and SQSTM; and the gene ACTB was used as an internal reference gene for gene expression normalization.
A20 μL reaction mix for qPCR contained: • 2 μL of cDNA; • 10 μL of 2×SYBR Green Supermix; • 1 μL of upstream and downstream primers; • 0.3 μL of reference dye; • 6.7 μL of water. • Each sample has three technical replicates. • Cycling conditions comprised: • pre-denaturation at 95° C. for 5 min; • denaturation at 95° C. for 15 sec; • annealing at 60° C. for 15 sec; and • extension at 72° C. for 30 sec.
After 40 cycles, the cycle […] (CT) value of the […] gene was used as an initial value in comparison with the amount of the amplified product.

Structure (SMILES)	inhibitory effect on the proliferation of tumor cells [1]	apoptosis of breast cancer cells (MDA-MB-468 cells [2]; 0.12 μM, 48 hours) [%]	induction of apoptosis (MDA-MB-468 cells [2]; MDA-MB-468, 0 and 0.12 μM, 48 h, vs control group)	expression level of CyclinD1 [3]	expression level of p-JAK2 [3]	expression level of p-STAT3 [3]	G1 phase ratio (HepG2 cells [4])	G2 phase ratio (HepG2 cells [4])	G1 phase ratio (MDA-MB-468 cells [5])	S phase ratio (MDA-MB-468 cells [5])	induction of apoptosis (HepG2 cells [6])	expression of MMP9 at mRNA level (HepG2 liver cancer cells)	down-regulation of Cyclin B1 (CCNB1) mRNA level (HepG2 liver cancer cells) [folds]	down-regulation of Cyclin D1 (CCND1) mRNA level (HepG2 liver cancer cells) [folds]
O=C(NCc1ccccn1)Nc1ccc(OCc2ccc(OCCN3CCCCC3)cc2)c2ccccc12 [IY210316B-1, 1-(4-((4-(2-(piperidin-1-yl)ethoxy)benzyl)oxy)naphthalen-1-yl)-3-(pyridin-2-ylmethyl)urea]	good inhibitory effects	43.86	increased apoptosis in a dose-dependent manner											
O=C(NCc1ccncc1)Nc1ccc(OCc2ccc(OCCN3CCCCC3)cc2)c2ccccc12 [ID210203C-1]	good inhibitory effects			significantly inhibit	significantly inhibit	significantly inhibit	significant decrease	significant increase	decrease	significant increase	increased apoptosis in a dose-dependent manner	down-regulating	~10	~10
O=C(Nc1ccc(OCc2ccc(OCCN3CCCCC3)cc2)c2ccccc12)NC1CCOCC1 [IY210216D-1]	good inhibitory effects						significant decrease	significant increase	decrease	significant increase	increased apoptosis in a dose-dependent manner	down-regulating	~10	~10
